Test results as given in patent US9642831B2, “Substituted chromanes and method of use” (AbbVie S.á.r.l., priority 2014, dated 2017).

Key:
CYP3A4 = CYP3A4 induction in primary human hepatocytes (mRNA, RT-PCR); details: test compounds 10 μM, 48 hours, % of response of positive control (Rifampin 10 μM)
Procedure: Cryopreserved primary human hepatocytes were thawed and cultured overnight prior to treatment. […] Following the 48 hour treatment, hepatocytes were harvested for RNA isolation and reverse transcription, followed by CYP3A4 mRNA quantitation using RT-PCR (real time reverse transcript polymerase chain reaction).
Fold Induction=Fold of Treated/Fold of Vehicle Control % positive control=(Fold Induction of Treated−1)/(Fold Induction of Prototypical Inducer−1)

F508delCFTR [1] = biological target: T1, F508delCFTR (Homo sapiens, UniProt P13569, DEL508-508); experiment: Cell Surface Expression-Horse Radish Peroxidase (CSE-HRP) assay; assay type: cell-based; parameters: expressed in transfected cells; host or cells: CFBE41o- human lung derived epithelial cell line, doxycycline-inducible; details: CFBE4lo-F508delCFTR-HRP cells; for EC50: 18-24 hours at 33° C., 8-point curve, highest concentration 20 μM, luminescence readout; for Emax: maximum % activity at any tested concentration, normalized to on-plate positive control (3 μM Example 1)
T1 sequence (P13569 with tags, fused parts or gaps DEL508-508): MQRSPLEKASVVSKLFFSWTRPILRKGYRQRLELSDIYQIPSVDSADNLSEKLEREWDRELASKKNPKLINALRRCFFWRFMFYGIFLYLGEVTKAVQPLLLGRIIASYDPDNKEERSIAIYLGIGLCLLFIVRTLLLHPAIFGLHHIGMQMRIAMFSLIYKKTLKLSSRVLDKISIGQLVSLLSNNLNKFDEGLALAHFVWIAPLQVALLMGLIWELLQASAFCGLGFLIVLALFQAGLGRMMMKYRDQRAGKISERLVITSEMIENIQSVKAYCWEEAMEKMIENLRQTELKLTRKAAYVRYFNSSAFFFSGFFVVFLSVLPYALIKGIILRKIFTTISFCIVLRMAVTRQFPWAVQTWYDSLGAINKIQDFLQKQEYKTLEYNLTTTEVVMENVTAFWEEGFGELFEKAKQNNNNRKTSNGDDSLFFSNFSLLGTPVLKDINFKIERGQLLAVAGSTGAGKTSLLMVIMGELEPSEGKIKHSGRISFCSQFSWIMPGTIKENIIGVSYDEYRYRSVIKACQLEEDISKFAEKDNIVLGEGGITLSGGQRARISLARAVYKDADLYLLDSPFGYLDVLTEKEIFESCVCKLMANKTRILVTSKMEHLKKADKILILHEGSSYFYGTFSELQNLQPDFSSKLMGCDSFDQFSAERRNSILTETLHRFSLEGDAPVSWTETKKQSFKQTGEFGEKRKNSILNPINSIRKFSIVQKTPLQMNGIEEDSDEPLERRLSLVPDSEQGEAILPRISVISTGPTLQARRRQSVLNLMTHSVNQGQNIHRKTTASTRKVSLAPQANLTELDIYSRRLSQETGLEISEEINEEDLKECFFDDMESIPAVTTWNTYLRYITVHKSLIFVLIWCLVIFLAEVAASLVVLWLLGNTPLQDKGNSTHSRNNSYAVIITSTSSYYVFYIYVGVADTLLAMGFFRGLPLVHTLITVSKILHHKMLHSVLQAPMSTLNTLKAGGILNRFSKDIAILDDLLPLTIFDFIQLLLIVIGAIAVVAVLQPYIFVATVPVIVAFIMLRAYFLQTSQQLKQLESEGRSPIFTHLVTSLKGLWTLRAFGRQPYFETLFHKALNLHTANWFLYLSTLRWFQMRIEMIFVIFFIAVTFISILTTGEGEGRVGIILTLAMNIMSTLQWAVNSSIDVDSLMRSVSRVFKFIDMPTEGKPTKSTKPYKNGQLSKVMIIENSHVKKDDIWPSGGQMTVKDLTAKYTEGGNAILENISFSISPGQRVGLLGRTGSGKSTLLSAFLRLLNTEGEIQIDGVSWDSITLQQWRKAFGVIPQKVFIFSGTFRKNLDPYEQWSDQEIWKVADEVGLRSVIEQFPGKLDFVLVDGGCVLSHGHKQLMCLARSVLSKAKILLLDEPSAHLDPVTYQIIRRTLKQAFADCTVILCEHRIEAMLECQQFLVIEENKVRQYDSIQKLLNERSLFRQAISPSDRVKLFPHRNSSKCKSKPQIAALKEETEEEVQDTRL
Method in brief: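 Following 18-24 h compound exposure at 33° C. Expression was doxycycline-induced beforehand. % activity versus DMSO and a 3 μM corrector control gave maximum activity and EC50 from a variable-Hill sigmoidal fit.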

F508delCFTR [2] = biological target: T1, F508delCFTR; experiment: Transepithelial Clamp Circuit (TECC-24) conductance assay on primary human bronchial epithelial cells (hBE-TECC); assay type: cell-based; parameters: cells isolated from CF patients with the homozygous mutation; endogenous in cells; host or cells: primary human bronchial epithelial (hBE) cells from F508del/F508del CF patients; details: for EC50: primary hBE cells from F508del/F508delCFTR patients, corrector 18-24 hours at 37° C., equivalent short circuit current (Ieq), with control potentiator 1 μM; for Emax: relative to positive control (3 μM Example 1 coupled with control potentiator = 100%), primary hBE F508del/F508del cells, read-out: Maximum % activity (%)
Text: Transepithelial Clamp Circuit on Human Bronchial Epithelial Cells Conductance Assay:
A cell based assay using the primary human bronchial epithelial cells (hBE) was used as a secondary assay to test novel F508delCFTR correctors for their activity on primary hBE cells with F508del/F508del CFTR mutation. The assay used a TECC-24 (Transepithelial Clamp Circuit for 24 wells) instrument that measures the functionality of the mutated channel by measuring the equivalent short circuit current (Ieq) generated by the polarized epithelial cells. The instrument works by measuring the transepithelial potential difference (Vt) and transepithelial resistance (Rt) in an open circuit format, and the Ieq is calculated by using Ohms law (Ieq=Vt/Rt). The assay was run in a 24-well format and all 24-wells were measured at the same time point giving a higher throughput for this assay.
Primary human bronchial epithelial (hBE) cells from F508del/F508delCFTR patients were expanded from 1×10^6 to 250×10^6 cells (Neuberger T, Burton B, Clark H and VanGoor F; Cystic Fibrosis, Methods in Mole Biol 741; eds. Amaral M D and Kunzelmann K, 2011). For this purpose, cells isolated from CF patients with the homozygous mutation were seeded onto 24 well Corning (Cat #3378) filter plates that were coated with 3T3 conditioned media and grown at an air-liquid interface for 35 days using an Ultroser® G supplemented differentiation media. Apical surface mucus was removed 72 hours before the experiment using 3 mM dithiothreitol (DTT) in phosphate buffered saline (PBS). The apical surface was washed again 24 hours before the experiment using PBS. The cells were incubated with the desired dose response of the corrector compounds 18-24 hours at 37° C., 5% CO2. The corrector compounds are only added on the basolateral side of the epithelial cells.
On the day of measuring the corrector activity on the TECC, the cells were switched into a bicarbonate and serum free F-12 Coon's medium and allowed to equilibrate for 90 minutes in a CO2 free incubator. At the time of measurement, the apical and basolateral sides of the filter were bathed with the F-12 Coon's modification media (with 20 mM 4-(2-hydroxyethyl)-1-piperazineethanesulfonic acid (HEPES), pH 7.4 (using 1 M tris(hydroxymethyl)aminormethane (Tris)), and the measurements were made at 36.5° C. Transepithelial voltage (Vt) and transepithelial resistance (Rt) were measured using a 24 channel transepithelial current clamp (TECC-24). Current responses to the sequential addition of benzamil (apical 6 μM addition; for inhibiting epithelial ENaC channel), forskolin (apical and basolateral 10 μM addition; for activating the CFTR channel), control potentiator (N-(3-carbamoyl-5,5,7,7-tetramethyl-4,7-dihydro-5H-thieno[2,3-c]pyran-2-yl)-1H-pyrazole-5-carboxamide; apical and basolateral 1 μM addition; for potentiating the CFTR channel) and bumetanide (basolateral 20 μM addition; for inhibiting the Na:2Cl:K co-transporter, an indirect measure of inhibiting the Cl-secretion driven by CFTR channel) were measured.
All plates contained negative controls (dimethyl sulfoxide, DMSO) which coupled with the control potentiator (N-(3-carbamoyl-5,5,7,7-tetramethyl-4,7-dihydro-5H-thieno[2,3-c]pyran-2-yl)-1H-pyrazole-5-carboxamide) sets the null response and positive controls (3 μM of 3-[(2R,4R)-4-({[1-(2,2-difluoro-1,3-benzodioxol-5-yl)cyclopropyl]carbonyl}amino)-7-methoxy-3,4-dihydro-2H-chromen-2-yl]benzoic acid) coupled with the control potentiator sets the 100% response to measure the correction of the mutated CFTR channel. The maximum percent activity is reported relative to the positive control value.
The % activity measured at each of the 6 test concentrations of the test compound was normalized to the on-plate positive control using the following formula: % activity=[(test compound response−DMSO response)/(positive control response−DMSO response)]*100 […]

| Compound | CYP3A4 Hepatocytes mRNA % of positive control (CYP3A4) [%] | EC50 (F508delCFTR [1]) [nM] | Emax (F508delCFTR [1]) [%] | EC50 (F508delCFTR [2]) [nM] | Emax (F508delCFTR [2]) [%] |
| --- | --- | --- | --- | --- | --- |
| Cc1ccc2c(c1)[C@H](NC(=O)C1(c3ccc4c(c3)OC(F)(F)O4)CC1)C[C@H](c1cccc(C(=O)O)c1)O2 [Example 14, 3-[(2R,4R)-4-({[1-(2,2-difluoro-1,3-benzodioxol-5-yl)cyclopropyl]carbonyl}amino)-6-methyl-3,4-dihydro-2H-chromen-2-yl]benzoic acid] | 3.54 | 850 | 78 |  |  |
| O=C(O)c1cccc([C@H]2C[C@@H](NC(=O)C3(c4ccc5c(c4)OC(F)(F)O5)CC3)c3ccccc3O2)c1 [Example 9, 3-[(2R,4R)-4-({[1-(2,2-difluoro-1,3-benzodioxol-5-yl)cyclopropyl]carbonyl}amino)-3,4-dihydro-2H-chromen-2-yl]benzoic acid] | 16.1 | 420 | 84 | 160 | 92 |
| O=C(O)C1CCCC([C@H]2C[C@@H](NC(=O)C3(c4ccc5c(c4)OC(F)(F)O5)CC3)c3ccc(C(F)(F)F)cc3O2)C1 (stereo partly drawn) [Example 109, 3-[(2R,4R)-4-({[1-(2,2-difluoro-1,3-benzodioxol-5-yl)cyclopropyl]carbonyl}amino)-7-(trifluoromethyl)-3,4-dihydro-2H-chromen-2-yl]cyclohexanecarboxylic acid] | 42.2 | 450 | 94 | 55 | 70 |
| O=C(O)c1ccc([C@H]2C[C@@H](NC(=O)C3(c4ccc5c(c4)OC(F)(F)O5)CC3)c3ccccc3O2)cc1 [Example 121, 4-[(2R,4R)-4-({[1-(2,2-difluoro-1,3-benzodioxol-5-yl)cyclopropyl]carbonyl}amino)-3,4-dihydro-2H-chromen-2-yl]benzoic acid] |  | 130 | 102 | 38 | 87 |
| COc1ccc2c(c1)O[C@@H](c1ccc(OC)c(OC)c1)C[C@H]2NC(=O)C1(c2ccc3c(c2)OC(F)(F)O3)CC1 [Example 3, 1-(2,2-difluoro-1,3-benzodioxol-5-yl)-N-[(2R,4R)-2-(3,4-dimethoxyphenyl)-7-methoxy-3,4-dihydro-2H-chromen-4-yl]cyclopropanecarboxamide] | 49.3 | 390 | 135 |  |  |
| O=C(O)C1CCCC([C@H]2C[C@@H](NC(=O)C3(c4ccc5c(c4)OC(F)(F)O5)CC3)c3ccc(OC(F)F)cc3O2)C1 (stereo partly drawn) [Example 26, 3-[(2R,4R)-4-({[1-(2,2-difluoro-1,3-benzodioxol-5-yl)cyclopropyl]carbonyl}amino)-7-(difluoromethoxy)-3,4-dihydro-2H-chromen-2-yl]cyclohexanecarboxylic acid] |  | 340 | 93 | 110 | 88 |

Continued, values first:

| CYP3A4 Hepatocytes mRNA % of positive control (CYP3A4) [%] | EC50 (F508delCFTR [1]) [nM] | Emax (F508delCFTR [1]) [%] | EC50 (F508delCFTR [2]) [nM] | Emax (F508delCFTR [2]) [%] | Compound |
| --- | --- | --- | --- | --- | --- |
| 9.38 | 630 | 103 | 210 | 111 | COc1ccc2c(c1)[C@H](NC(=O)C1(c3ccc4c(c3)OC(F)(F)O4)CC1)C[C@H](c1cccc(C(=O)O)c1)O2 [Example 19, 3-[(2R,4R)-4-({[1-(2,2-difluoro-1,3-benzodioxol-5-yl)cyclopropyl]carbonyl}amino)-6-methoxy-3,4-dihydro-2H-chromen-2-yl]benzoic acid] |
|  | 100 | 115 | 31.3 | 100 | COc1ccc2c(c1)O[C@@H](c1ccc(C(=O)O)c(F)c1)C[C@H]2NC(=O)C1(c2ccc3c(c2)OC(F)(F)O3)CC1 [Example 139, 4-[(2R,4R)-4-({[1-(2,2-difluoro-1,3-benzodioxol-5-yl)cyclopropyl]carbonyl}amino)-7-methoxy-3,4-dihydro-2H-chromen-2-yl]-2-fluorobenzoic acid] |
| 11.6 | 30 | 129 | 4 | 98 | COc1ccc2c(c1)O[C@@H](c1ccc(C(=O)O)cc1F)C[C@H]2NC(=O)C1(c2ccc3c(c2)OC(F)(F)O3)CC1 [Example 146, 4-[(2R,4R)-4-({[1-(2,2-difluoro-1,3-benzodioxol-5-yl)cyclopropyl]carbonyl}amino)-7-methoxy-3,4-dihydro-2H-chromen-2-yl]-3-fluorobenzoic acid] |
| 14 | 280 | 102 | 290 | 95 | COc1ccc2c(c1)O[C@@H](c1cccc(C(=O)O)c1)C[C@H]2NC(=O)C1(c2ccc3c(c2)OC(F)(F)O3)CC1 [Example 1, 3-[(2R,4R)-4-({[1-(2,2-difluoro-1,3-benzodioxol-5-yl)cyclopropyl]carbonyl}amino)-7-methoxy-3,4-dihydro-2H-chromen-2-yl]benzoic acid] |
| 39.6 | 340 | 115 | 86 | 96 | O=C(O)c1cccc([C@H]2C[C@@H](NC(=O)C3(c4ccc5c(c4)OC(F)(F)O5)CC3)c3ccc(C(F)(F)F)cc3O2)c1 [Example 108, 3-[(2R,4R)-4-({[1-(2,2-difluoro-1,3-benzodioxol-5-yl)cyclopropyl]carbonyl}amino)-7-(trifluoromethyl)-3,4-dihydro-2H-chromen-2-yl]benzoic acid] |
| −0.105 | 44 | 113 | 5 | 90 | COc1ccc2c(c1)O[C@@H](c1ccc(C(=O)O)cc1)C[C@H]2NC(=O)C1(c2ccc3c(c2)OC(F)(F)O3)CC1 [Example 111, 4-[(2R,4R)-4-({[1-(2,2-difluoro-1,3-benzodioxol-5-yl)cyclopropyl]carbonyl}amino)-7-methoxy-3,4-dihydro-2H-chromen-2-yl]benzoic acid] |
| 10.6 | 26 | 122 | 4 | 87 | O=C(O)c1ccc([C@H]2C[C@@H](NC(=O)C3(c4ccc5c(c4)OC(F)(F)O5)CC3)c3ccc(OC(F)F)cc3O2)cc1 [Example 122, 4-[(2R,4R)-4-({[1-(2,2-difluoro-1,3-benzodioxol-5-yl)cyclopropyl]carbonyl}amino)-7-(difluoromethoxy)-3,4-dihydro-2H-chromen-2-yl]benzoic acid] |
| 40.2 |  |  |  |  | O=C(O)c1cccc([C@H]2C[C@@H](NC(=O)C3(c4ccc5c(c4)OC(F)(F)O5)CC3)c3ccc(F)cc3O2)c1 [Example 38, 3-[(2R,4R)-4-({[1-(2,2-difluoro-1,3-benzodioxol-5-yl)cyclopropyl]carbonyl}amino)-7-fluoro-3,4-dihydro-2H-chromen-2-yl]benzoic acid] |
